Each structure is given as a SMILES string.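 Method: 48-hour compound exposure of cells in 96-well plates, five concentrations, linear interpolation of endpoints. GI50: concentration for 50% inhibition of growth.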 Calls of active or inactive are those of the source. Cut-off read from the data, not from the text of the source: active = GI50 up to about 1.1 µM and inactive = higher. Bounds are passed on as bounds.

Test systems include A498; ACHN; CCRF-CEM; HCT-116; HL-60; HOP-92; HT-29; K562; M14; MDA-MB-231; Malme-3M; NCI-H23; NCI/ADR-RES; OVCAR-8; RPMI-8226; RXF 393; SK-OV-3; SNB-19; UACC-257; SK-MEL-28.
What all share (experiment): NCI-60 cell line screen, 48 h

As to `CN1CC2CN(Cc3ccccc3)CCN2c2cccnc21` (stereo unspecified), the GI50 in the assay on A498 is 95.3 µM (inactive); in the assay on ACHN, 45.2 µM (inactive); with CCRF-CEM, 32.8 µM (inactive); with HCT-116, 10.6 µM (inactive); in the assay on HL-60 it was 29 µM (inactive); with HOP-92, 47.4 µM (inactive). Also, the GI50 in the assay on HT-29 was 29.1 µM (inactive); in the assay on K562, 29.2 µM (inactive); in the assay with M14, 60.7 µM (inactive); in the assay with MDA-MB-231, 97.1 µM (inactive); in the assay with Malme-3M it was 47 µM (inactive); in the assay with NCI-H23, 39 µM (inactive). The GI50 was 32.1 µM (inactive) in the assay with NCI/ADR-RES; 48.2 µM (inactive) in the assay on OVCAR-8; 27.5 µM (inactive) in the assay on RPMI-8226; > 100 µM (inactive) in the assay with RXF 393; > 100 µM (inactive) in the assay on SK-OV-3; 64.7 µM (inactive) in the assay with SNB-19. For the same compound, the GI50 in the assay with UACC-257 is 40.8 µM (inactive).
For the compound `CC1(C)CC(=O)c2c(N)n[nH]c2C1`, the GI50 in the assay on A498, in the assay on ACHN, in the assay with CCRF-CEM, with HCT-116, in the assay with HL-60 and in the assay on HOP-92 was > 100 µM (inactive) in each case. Moreover, the GI50 in the assay on HT-29, in the assay on K562, in the assay with M14, with MDA-MB-231, in the assay with Malme-3M and with NCI-H23 was > 100 µM (inactive) each time. Further, the GI50 in the assay with NCI/ADR-RES, with OVCAR-8, in the assay on RPMI-8226, with RXF 393, with SK-MEL-28 and with SNB-19 was > 100 µM (inactive) in each case. In the assay on UACC-257, the GI50 is > 100 µM (inactive).
Consider `Nc1nc(Cl)cc(NCC2(CO)CC(OCc3ccccc3)C2)n1` (stereo unspecified), for which the GI50 is 16.9 µM (inactive) in the assay with A498; > 100 µM (inactive) in the assay with ACHN; > 100 µM (inactive) in the assay with CCRF-CEM; 40.5 µM (inactive) in the assay with HCT-116; 27.3 µM (inactive) in the assay with HL-60; > 100 µM (inactive) in the assay with HOP-92. Besides, the GI50 with HT-29 was > 100 µM (inactive); in the assay on K562 it was 14.6 µM (inactive); with MDA-MB-231 it was 63.2 µM (inactive); in the assay on Malme-3M it was > 100 µM (inactive); with NCI-H23, > 100 µM (inactive); with NCI/ADR-RES, 36.1 µM (inactive). Moreover, the GI50 was 71.6 µM (inactive) in the assay with OVCAR-8; 45.9 µM (inactive) in the assay with RPMI-8226; 14.2 µM (inactive) in the assay on RXF 393; > 100 µM (inactive) with SK-MEL-28; > 100 µM (inactive) with SK-OV-3; 41.9 µM (inactive) with SNB-19. Moreover, in the assay on UACC-257, the GI50 was > 100 µM (inactive).
In the case of `Cc1ccc2c(O)cc(-c3ccc(C)s3)nc2n1`, the GI50 in the assay on A498 is 0.762 µM (active); with ACHN, 0.731 µM (active); in the assay on CCRF-CEM, 0.276 µM (active); with HCT-116, 0.295 µM (active); with HL-60 it was 0.0775 µM (active); in the assay on HOP-92, 5.21 µM (inactive). Also, the GI50 in the assay on HT-29 was 0.526 µM (active); with K562, 0.423 µM (active); in the assay on M14 it was 0.303 µM (active); in the assay on MDA-MB-231, 1.73 µM (inactive); in the assay on Malme-3M it was 0.94 µM (active); with NCI-H23, 0.277 µM (active). Also, the GI50 in the assay on NCI/ADR-RES is 0.129 µM (active); in the assay with OVCAR-8, 0.652 µM (active); in the assay with RPMI-8226 it was 0.248 µM (active); with RXF 393 it was 0.656 µM (active); in the assay with SK-OV-3, 0.746 µM (active); in the assay on SNB-19, 0.644 µM (active). The GI50 in the assay on UACC-257 was 16.6 µM (inactive).

The values above are taken from ChEMBL document CHEMBL1201862, “PubChem BioAssay data set” (2004).
